# Organism: Rattus norvegicus
# Assay: Open TG-GATES - Regimen: Single
# Format: toxicity, organism-based, Sprague-Dawley
# Set-up: regimen Single, gender Male, age 6 weeks
# Details: in vivo, po, 100 mg/kg, route gavage, dose level Low; for ALP / ALT / AST / BUN / CRE / Ca / Cl / DBIL / GLC / IP / K / LDH / Na / PL / RALB / TBIL / TC / TG / TP / gamma-GTP: tissue Plasma
compound,measurement,setting,value
O=C(O)c1cccnc1 [NIACIN],Bas,"3 h, tissue Blood",0%
same,Eos,"3 h, tissue Blood",1%
same,Fbg,"3 h, tissue Blood",311 mg/dL
same,Hb,"3 h, tissue Blood",13.6 g/dL
same,Ht,"3 h, tissue Blood",40.7%
same,Lym,"3 h, tissue Blood",78.4%
same,MCHC,"3 h, tissue Blood",33.4%
same,MCV,"3 h, tissue Blood",65.5 fL
same,Mono,"3 h, tissue Blood",2.6%
same,Neu,"3 h, tissue Blood",16.6%
same,PT,"3 h, tissue Blood",16.2 s
same,Plat,"3 h, tissue Blood",118.2 x10_4/uL
same,RBC,"3 h, tissue Blood",621.4 x10_4/ul
same,Ret,"3 h, tissue Blood",8.2%
same,WBC,"3 h, tissue Blood",107.6 x10_2/uL
same,ALP,3 h,1552.4 IU/L
same,ALT,3 h,42.2 IU/L
same,AST,3 h,79.8 IU/L
same,BUN,3 h,13.6 mg/dL
same,CRE,3 h,0.2 mg/dL
same,Ca,3 h,10.8 mg/dL
same,Cl,3 h,105.4 meq/L
same,DBIL,3 h,0 mg/dL
same,GLC,3 h,183 mg/dL
same,IP,3 h,8.7 mg/dL
same,K,3 h,3.9 meq/L
same,LDH,3 h,196.8 IU/L
same,Na,3 h,141 meq/L
same,PL,3 h,118.4 mg/dL
same,RALB,3 h,3 g/dL
same,TBIL,3 h,0.008 mg/dL
same,TC,3 h,71 mg/dL
same,TG,3 h,27.8 mg/dL
same,TP,3 h,5.6 g/dL
same,gamma-GTP,3 h,1.4 IU/L
same,APTT,"6 h, tissue Blood",22.5 s
same,Bas,"6 h, tissue Blood",0%
same,Eos,"6 h, tissue Blood",1%
same,Fbg,"6 h, tissue Blood",314 mg/dL
same,Hb,"6 h, tissue Blood",13.4 g/dL
same,Ht,"6 h, tissue Blood",40%
same,Lym,"6 h, tissue Blood",78.4%
same,MCHC,"6 h, tissue Blood",33.4%
same,Mono,"6 h, tissue Blood",3.4%
same,Neu,"6 h, tissue Blood",16.2%
same,PT,"6 h, tissue Blood",16.5 s
same,Plat,"6 h, tissue Blood",119.1 x10_4/uL
same,RBC,"6 h, tissue Blood",626.8 x10_4/ul
same,Ret,"6 h, tissue Blood",8%
same,WBC,"6 h, tissue Blood",87.9 x10_2/uL
same,ALP,6 h,1431.4 IU/L
same,ALT,6 h,38.8 IU/L
same,AST,6 h,69.8 IU/L
same,BUN,6 h,12.4 mg/dL
same,CRE,6 h,0.2 mg/dL
same,Ca,6 h,10.9 mg/dL
same,Cl,6 h,105 meq/L
same,DBIL,6 h,0.002 mg/dL
same,GLC,6 h,186 mg/dL
same,IP,6 h,8.9 mg/dL
same,K,6 h,3.8 meq/L
same,LDH,6 h,156.8 IU/L
same,Na,6 h,139.8 meq/L
same,PL,6 h,115 mg/dL
same,RALB,6 h,3 g/dL
same,TBIL,6 h,0.008 mg/dL
same,TC,6 h,64.4 mg/dL
same,TG,6 h,37.2 mg/dL
same,TP,6 h,5.5 g/dL
same,gamma-GTP,6 h,1.6 IU/L
same,Bas,"9 h, tissue Blood",0%
same,Eos,"9 h, tissue Blood",0.8%
same,Fbg,"9 h, tissue Blood",305.4 mg/dL
same,Hb,"9 h, tissue Blood",13.5 g/dL
same,Ht,"9 h, tissue Blood",40.6%
same,Lym,"9 h, tissue Blood",81.6%
same,MCHC,"9 h, tissue Blood",33.3%
same,MCV,"9 h, tissue Blood",65.6 fL
same,Mono,"9 h, tissue Blood",2%
same,Neu,"9 h, tissue Blood",15.2%
same,PT,"9 h, tissue Blood",15.6 s
same,Plat,"9 h, tissue Blood",126.3 x10_4/uL
same,RBC,"9 h, tissue Blood",618.6 x10_4/ul
same,Ret,"9 h, tissue Blood",8.4%
same,WBC,"9 h, tissue Blood",88.6 x10_2/uL
same,ALP,9 h,1314.4 IU/L
same,ALT,9 h,38.8 IU/L
same,AST,9 h,70.4 IU/L
same,CRE,9 h,0.2 mg/dL
same,Ca,9 h,10.8 mg/dL
same,Cl,9 h,105.4 meq/L
same,DBIL,9 h,0.002 mg/dL
same,GLC,9 h,182.8 mg/dL
same,IP,9 h,8.9 mg/dL
same,K,9 h,4.1 meq/L
same,LDH,9 h,161.4 IU/L
same,Na,9 h,140.6 meq/L
same,PL,9 h,134 mg/dL
same,RALB,9 h,2.9 g/dL
same,TBIL,9 h,0.008 mg/dL
same,TC,9 h,73 mg/dL
same,TG,9 h,77 mg/dL
same,TP,9 h,5.5 g/dL
same,gamma-GTP,9 h,1.6 IU/L
same,Bas,"24 h, tissue Blood",0%
same,Eos,"24 h, tissue Blood",1%
same,Fbg,"24 h, tissue Blood",327.8 mg/dL
same,Hb,"24 h, tissue Blood",13.7 g/dL
same,Ht,"24 h, tissue Blood",40.6%
same,Lym,"24 h, tissue Blood",77.8%
same,MCHC,"24 h, tissue Blood",33.6%
same,MCV,"24 h, tissue Blood",64.8 fL
same,Mono,"24 h, tissue Blood",3%
same,Neu,"24 h, tissue Blood",17.2%
same,PT,"24 h, tissue Blood",16 s
same,Plat,"24 h, tissue Blood",109.3 x10_4/uL
same,RBC,"24 h, tissue Blood",627.6 x10_4/ul
same,Ret,"24 h, tissue Blood",7.6%
same,WBC,"24 h, tissue Blood",96.3 x10_2/uL
same,ALP,24 h,1716.6 IU/L
same,ALT,24 h,41.6 IU/L
same,AST,24 h,67.2 IU/L
same,BUN,24 h,16.2 mg/dL
same,CRE,24 h,0.2 mg/dL
same,Ca,24 h,10.5 mg/dL
same,Cl,24 h,104.6 meq/L
same,DBIL,24 h,0.002 mg/dL
same,GLC,24 h,192 mg/dL
same,IP,24 h,7.6 mg/dL
same,K,24 h,4.1 meq/L
same,LDH,24 h,155.4 IU/L
same,Na,24 h,139.6 meq/L
same,PL,24 h,154.2 mg/dL
same,RALB,24 h,3.1 g/dL
same,TBIL,24 h,0 mg/dL
same,TC,24 h,75.2 mg/dL
same,TG,24 h,158.4 mg/dL
same,TP,24 h,5.6 g/dL

# Reference: ChEMBL document CHEMBL3885861, “Open TG-GATES”
